Measurements as given in patent US6593357B1, “Pyrazole compositions useful as inhibitors of ERK” (Vertex Pharmaceuticals Incorporated, priority 2000, dated 2003).
pKi: −log10 of the molar value.

target: ERK2 (Homo sapiens, UniProt P28482); test: ERK2 inhibition, spectrophotometric coupled-enzyme assay; type: biochemical; conditions: ERK2 Inhibitory Activity (Ki class), activated ERK2 10 nM, 65 μM ATP, 30° C., pH 7.5
Sequence (P28482 whole entry): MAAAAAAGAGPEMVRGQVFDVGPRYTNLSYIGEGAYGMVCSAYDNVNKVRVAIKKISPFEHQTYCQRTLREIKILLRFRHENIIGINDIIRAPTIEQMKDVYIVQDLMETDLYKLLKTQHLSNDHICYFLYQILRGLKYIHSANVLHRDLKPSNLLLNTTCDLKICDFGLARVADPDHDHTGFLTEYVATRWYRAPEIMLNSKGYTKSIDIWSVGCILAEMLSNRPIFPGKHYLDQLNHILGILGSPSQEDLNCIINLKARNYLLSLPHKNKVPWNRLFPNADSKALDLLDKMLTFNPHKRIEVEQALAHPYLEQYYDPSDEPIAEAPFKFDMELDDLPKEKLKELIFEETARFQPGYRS

Q: O=C(NC1c2ccccc2CC1O)c1cc(-c2[nH]ncc2-c2cccc(Cl)c2)c[nH]1 (centres unmarked) [II-155] was tested. Which pKi did it give?
A: 5.30 to 6.00

same assay, conditions: activated ERK2 10 nM, 65 μM ATP, 30° C., pH 7.5; read-out: ERK2 Inhibitory Activity (Ki class)

Q: O=C(NC[C@@H]1CCCC[C@@H]1O)c1cc(-c2[nH]ncc2-c2cccc(Br)c2)c[nH]1 [II-65] was tested. Which pKi did it give?
A: > 6.00

Q: How did the pKi turn out when COc1cc(CNC(=O)c2cc(-c3[nH]ncc3-c3cccc(Br)c3)c[nH]2)cc(OC)c1 [II-68] was run?
A: > 6.00

Q: With O=C(NC(COc1ccccc1)c1ccc2c(c1)OCCO2)c1cc(-c2[nH]ncc2-c2cccc(Br)c2)c[nH]1 (centres unmarked) [II-290] as the compound, how does the pKi read?
A: 5.30 to 6.00

Q: CC(C)NC(=O)c1cc(-c2[nH]ncc2-c2ccccc2)c[nH]1 [II-20] was tested. Which pKi did it give?
A: > 6.00

Q: CC(C)NC(=O)c1cc(-c2[nH]ncc2-c2cccc(C(=O)O)c2)c[nH]1 [II-160] was tested. Which pKi did it give?
A: 5.30 to 6.00

Q: With CC1CCN(C(=O)c2cc(-c3[nH]ncc3-c3cccc(Cl)c3)c[nH]2)CC1 [II-136] as the compound, how does the pKi read?
A: 5.30 to 6.00

Q: O=C(NCC1CCCO1)c1cc(-c2[nH]ncc2-c2ccc(F)c(F)c2)c[nH]1 (centres unmarked) [II-120] was tested. Which pKi did it give?
A: 5.30 to 6.00

Q: How did the pKi turn out when O=C(NCc1ccccc1)c1cc(-c2[nH]ncc2-c2cccc([N+](=O)[O-])c2)c[nH]1 [II-285] was run?
A: 5.30 to 6.00

Q: With CCOC(=O)c1cc(-c2[nH]ncc2-c2ccc([N+](=O)[O-])cc2)c[nH]1 [II-165] as the compound, how does the pKi read?
A: < 5.30

Q: How did the pKi turn out when O=C(NCc1cccc(C(F)(F)F)c1)c1cc(-c2[nH]ncc2-c2cccc(Br)c2)c[nH]1 [II-47] was run?
A: > 6.00

Q: How did the pKi turn out when COc1ccc(OC)c(CNC(=O)c2cc(-c3[nH]ncc3-c3cccc(Br)c3)c[nH]2)c1 [II-124] was run?
A: 5.30 to 6.00

Q: How did the pKi turn out when O=C(N[C@@H](CO)Cc1cnc[nH]1)c1cc(-c2[nH]ncc2-c2cccc(Br)c2)c[nH]1 [II-294] was run?
A: < 5.30

Q: With COc1cccc(CNC(=O)c2cc(-c3[nH]ncc3-c3cccc(Br)c3)c[nH]2)c1 [II-46] as the compound, how does the pKi read?
A: > 6.00

Q: CN(C)CCNC(=O)c1cc(-c2[nH]ncc2-c2ccccc2)c[nH]1 [II-297] was tested. Which pKi did it give?
A: < 5.30

Q: CCOC(=O)c1cc(-c2[nH]ncc2-c2cccc(Br)c2)c[nH]1 [II-157] was tested. Which pKi did it give?
A: 5.30 to 6.00

Q: O=C(NNc1cccc(C(F)(F)F)c1)c1cc(-c2[nH]ncc2-c2cccc(Br)c2)c[nH]1 [II-56] was tested. Which pKi did it give?
A: > 6.00

Q: COc1ccc(C[C@H](CO)NC(=O)c2cc(-c3[nH]ncc3-c3cccc(Br)c3)c[nH]2)cc1OC [II-296] was tested. Which pKi did it give?
A: < 5.30

Q: With O=C(NCc1ccco1)c1cc(-c2[nH]ncc2-c2ccccc2)c[nH]1 [II-22] as the compound, how does the pKi read?
A: > 6.00

Q: O=C(c1cc(-c2[nH]ncc2-c2cccc(Br)c2)c[nH]1)N(CCCO)Cc1ccccc1 [II-139] was tested. Which pKi did it give?
A: 5.30 to 6.00

Q: How did the pKi turn out when CCN(C)C(=O)c1cc(-c2[nH]ncc2-c2cccc(OC)c2)c[nH]1 [II-292] was run?
A: < 5.30

Q: COC(=O)c1cccc(-c2cn[nH]c2-c2c[nH]c(C(=O)NCc3ccccc3)c2)c1 [II-132] was tested. Which pKi did it give?
A: 5.30 to 6.00

Q: How did the pKi turn out when CCOC(=O)c1cc(-c2[nH]ncc2-c2cccc(F)c2)c[nH]1 [II-162] was run?
A: < 5.30

Q: How did the pKi turn out when O=C(c1cc(-c2[nH]ncc2-c2cccc(Br)c2)c[nH]1)N1CCC(O)(c2ccccc2)CC1 [II-102] was run?
A: > 6.00

Q: With NNC(=O)c1cc(-c2[nH]ncc2-c2cccc([N+](=O)[O-])c2)c[nH]1 [II-137] as the compound, how does the pKi read?
A: 5.30 to 6.00

Q: How did the pKi turn out when COc1cccc(-c2cn[nH]c2-c2c[nH]c(C(=O)NCc3cccnc3)c2)c1 [II-26] was run?
A: > 6.00

Q: With COc1cc(OC)c(CNC(=O)c2cc(-c3[nH]ncc3-c3cccc(Br)c3)c[nH]2)c(OC)c1 [II-118] as the compound, how does the pKi read?
A: 5.30 to 6.00

Q: How did the pKi turn out when O=C(NC(CO)c1ccccc1)c1cc(-c2[nH]ncc2-c2cc(I)c(O)c([N+](=O)[O-])c2)c[nH]1 (centres unmarked) [II-42] was run?
A: > 6.00

Q: O=C(NCc1ccc(-c2cnns2)cc1)c1cc(-c2[nH]ncc2-c2cccc(Br)c2)c[nH]1 [II-110] was tested. Which pKi did it give?
A: > 6.00

Q: With O=C(NCc1ccccc1)c1cc(-c2[nH]ncc2-c2cccc([N+](=O)[O-])c2)c[nH]1 [II-79] as the compound, how does the pKi read?
A: > 6.00

Q: How did the pKi turn out when CCOC(=O)c1cc(-c2[nH]ncc2-c2ccccc2)c[nH]1 [II-2] was run?
A: < 5.30

Q: With O=C(NCc1ccccc1)c1cc(-c2[nH]ncc2-c2ccc(Cl)cc2)c[nH]1 [II-92] as the compound, how does the pKi read?
A: > 6.00

Q: Nc1cccc(-c2cn[nH]c2-c2c[nH]c(C(=O)NCc3ccccc3)c2)c1 [II-131] was tested. Which pKi did it give?
A: 5.30 to 6.00

Q: Cc1ccc(N2CCN(C(=O)c3cc(-c4[nH]ncc4-c4cccc(Br)c4)c[nH]3)CC2)cc1 [II-126] was tested. Which pKi did it give?
A: 5.30 to 6.00

Q: With CC(C)(C)OC(=O)N1CCCC(CNC(=O)c2cc(-c3[nH]ncc3-c3cccc(Cl)c3F)c[nH]2)C1 (centres unmarked) [II-121] as the compound, how does the pKi read?
A: 5.30 to 6.00

Q: CCOC(=O)c1cc(-c2[nH]ncc2-c2cccc(OC)c2)c[nH]1 [II-10] was tested. Which pKi did it give?
A: < 5.30

Q: How did the pKi turn out when O=C(NC(CCO)c1ccccc1)c1cc(-c2[nH]ncc2-c2cccc(Br)c2)c[nH]1 (centres unmarked) [II-86] was run?
A: > 6.00

Q: With O=C(NCc1ccccc1)c1cc(-c2[nH]ncc2-c2cccc(O)c2)c[nH]1 [II-95] as the compound, how does the pKi read?
A: > 6.00

Q: With CNC(=O)c1cc(-c2[nH]ncc2-c2cccc(Br)c2)c[nH]1 [II-152] as the compound, how does the pKi read?
A: 5.30 to 6.00

Q: CS(=O)(=O)c1ccc(CNC(=O)c2cc(-c3[nH]ncc3-c3cccc(Br)c3)c[nH]2)cc1 [II-55] was tested. Which pKi did it give?
A: > 6.00

Q: O=C(c1cc(-c2[nH]ncc2-c2cccc(Br)c2)c[nH]1)N1CCC(O)(c2ccc(Br)cc2)CC1 [II-123] was tested. Which pKi did it give?
A: 5.30 to 6.00

Q: How did the pKi turn out when CCOC(=O)c1cc(-c2[nH]ncc2-c2ccc(OC)cc2)c[nH]1 [II-8] was run?
A: < 5.30

Q: How did the pKi turn out when O=C(N[C@@H](CO)Cc1ccc(O)cc1)c1cc(-c2[nH]ncc2-c2cccc(Br)c2)c[nH]1 [II-293] was run?
A: < 5.30

Q: With O=C(NCc1cccnc1)c1cc(-c2[nH]ncc2-c2ccc(F)c(F)c2)c[nH]1 [II-116] as the compound, how does the pKi read?
A: 5.30 to 6.00

Q: How did the pKi turn out when CCC(NC(=O)c1cc(-c2[nH]ncc2-c2cccc(Br)c2)c[nH]1)c1ccccc1 (centres unmarked) [II-62] was run?
A: > 6.00

Q: O=C(NCc1cccnc1)c1cc(-c2[nH]ncc2-c2ccccc2)c[nH]1 [II-18] was tested. Which pKi did it give?
A: > 6.00

Q: How did the pKi turn out when COc1ccccc1CNC(=O)c1cc(-c2[nH]ncc2-c2cccc(Br)c2)c[nH]1 [II-69] was run?
A: > 6.00

Q: With Nc1ccc(CNC(=O)c2cc(-c3[nH]ncc3-c3cccc(Br)c3)c[nH]2)cc1 [II-109] as the compound, how does the pKi read?
A: > 6.00

Q: With COc1ccc(-c2cn[nH]c2-c2c[nH]c(C(=O)NCc3ccccc3)c2)cc1 [II-117] as the compound, how does the pKi read?
A: 5.30 to 6.00

Q: How did the pKi turn out when CC(C)(C)OC(=O)N1CCCC(CNC(=O)c2cc(-c3[nH]ncc3-c3cc(Cl)cc(Cl)c3)c[nH]2)C1 (centres unmarked) [II-125] was run?
A: 5.30 to 6.00

Q: How did the pKi turn out when COc1cccc(N2CCN(C(=O)c3cc(-c4[nH]ncc4-c4cccc(Br)c4)c[nH]3)CC2)c1 [II-122] was run?
A: 5.30 to 6.00

Q: CC1CCN(C(=O)c2cc(-c3[nH]ncc3-c3ccccc3)c[nH]2)CC1 [II-166] was tested. Which pKi did it give?
A: < 5.30

Q: CCOC(=O)c1cc(-c2[nH]ncc2-c2ccc(Cl)cc2)c[nH]1 [II-7] was tested. Which pKi did it give?
A: < 5.30

Q: How did the pKi turn out when CCOC(=O)c1cc(-c2[nH]ncc2-c2cccc(N)c2)c[nH]1 [II-9] was run?
A: < 5.30

Q: With COc1cccc(-c2cn[nH]c2-c2c[nH]c(C(=O)N(C)C)c2)c1 [II-23] as the compound, how does the pKi read?
A: > 6.00

Q: With O=C(c1cc(-c2[nH]ncc2-c2cccc(Br)c2)c[nH]1)N1CCN(c2ccc(F)cc2)CC1 [II-128] as the compound, how does the pKi read?
A: 5.30 to 6.00

Q: CCOC(=O)c1cc(-c2[nH]ncc2-c2cccc([N+](=O)[O-])c2)c[nH]1 [II-148] was tested. Which pKi did it give?
A: 5.30 to 6.00

Q: COc1cccc(-c2cn[nH]c2-c2c[nH]c(C(=O)NCc3ccco3)c2)c1 [II-30] was tested. Which pKi did it give?
A: > 6.00

Q: With O=C(NCCO)c1cc(-c2[nH]ncc2-c2cccc(Br)c2)c[nH]1 [II-130] as the compound, how does the pKi read?
A: 5.30 to 6.00

Q: With CCOC(=O)c1cc(-c2[nH]ncc2-c2cccc(Cl)c2)c[nH]1 [II-13] as the compound, how does the pKi read?
A: > 6.00

Q: How did the pKi turn out when Cc1ccccc1CNC(=O)c1cc(-c2[nH]ncc2-c2cccc(Br)c2)c[nH]1 [II-60] was run?
A: > 6.00

Q: O=C(NCc1ccccc1)c1cc(-c2[nH]ncc2-c2cc(I)c(O)c([N+](=O)[O-])c2)c[nH]1 [II-52] was tested. Which pKi did it give?
A: > 6.00
